Assay results as given in the supplement of paper PMC10307832.

How the values were obtained:
Assay in all cases: relative viability (nuclei count vs DMSO), 5 days (fraction); higher = more cells survive
[1] = compound: Cn1cc(-c2cnn3c(N)c(Br)c([C@@H]4CCCNC4)nc23)cn1 + CS(=O)(=O)N1CCN(Cc2cc3nc(-c4cccc5[nH]ncc45)nc(N4CCOCC4)c3s2)CC1 [Pictilisib] (partner 1 µM)
Outline: (§1)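 Each reported value is a median over duplicate plates. It expresses relative viability: treated-well nuclei count divided by vehicle-well nuclei count. Lung cancer cell lines in 1536-well plates were dosed by pin tool a day after seeding, alone with one drug or with a fixed anchor-drug dose plus five library-drug doses (not always all listed) in √10 steps, and nuclei were counted after 5 days.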

[2] = compound: Cn1cc(-c2cnn3c(N)c(Br)c([C@@H]4CCCNC4)nc23)cn1 + CC(=O)c1c(C)c2cnc(Nc3ccc(N4CCNCC4)cn3)nc2n(C2CCCC2)c1=O [Palbociclib] (partner 0.5 µM)
Outline: as §1

[3] = compound: Cn1cc(-c2cnn3c(N)c(Br)c([C@@H]4CCCNC4)nc23)cn1 + Nc1ncn([C@H]2C[C@H](O)[C@@H](CO)O2)c(=O)n1 [Decitabine] (partner 2 µM)
Outline: as §1

[4] = compound: Cn1cc(-c2cnn3c(N)c(Br)c([C@@H]4CCCNC4)nc23)cn1 + N=C(N)NC(=N)NCCc1ccccc1 [Phenformin] (partner 250 µM)
Outline: as §1

Cell Line	relative viability ([1]; first compound 0.05 µM)	relative viability ([1]; first compound 0.1581 µM)	relative viability ([1]; first compound 0.5 µM)	relative viability ([1]; first compound 1.581 µM)	relative viability ([1]; first compound 5 µM)	relative viability ([2]; first compound 0.05 µM)	relative viability ([2]; first compound 0.1581 µM)	relative viability ([2]; first compound 0.5 µM)	relative viability ([2]; first compound 1.581 µM)	relative viability ([2]; first compound 5 µM)	relative viability ([3]; first compound 0.05 µM)	relative viability ([3]; first compound 0.1581 µM)	relative viability ([3]; first compound 0.5 µM)	relative viability ([3]; first compound 1.581 µM)	relative viability ([3]; first compound 5 µM)	relative viability ([4]; first compound 0.05 µM)	relative viability ([4]; first compound 0.1581 µM)	relative viability ([4]; first compound 0.5 µM)	relative viability ([4]; first compound 1.581 µM)	relative viability ([4]; first compound 5 µM)
H3255	0.489	0.488	0.427	0.425	0.327	0.314	0.342	0.323	0.291	0.277	0.624	0.586	0.585	0.647	0.474	0.372	0.353	0.345	0.385	0.322
EPLC-272H	0.289	0.291	0.277	0.211	0.21	0.294	0.312	0.311	0.273	0.25	0.342	0.304	0.336	0.303	0.253	0.288	0.275	0.321	0.292	0.188
PC-3 [JPC-3]	0.692	0.746	0.744	0.667	0.747	0.499	0.53		0.512	0.562	0.759	0.86		0.808	0.853	0.444	0.476	0.443	0.448	0.455
NCI-H1793	0.306	0.411	0.308	0.21	0.191	0.349	0.281	0.32	0.301	0.31	0.532	0.543	0.542	0.498	0.178	0.322	0.465	0.435	0.328	0.252
EKVX	0.507	0.506	0.507	0.469	0.396	0.368	0.376	0.383	0.413	0.355	0.768	0.414	0.343	0.571	0.41	0.223	0.254	0.257	0.245	0.194
ChaGo-K-1	0.708	0.672	0.65	0.617	0.501	0.956	0.98	0.911	0.869	0.97	0.52	0.559	0.526	0.563	0.601	0.467	0.523	0.509	0.46	0.503
NCI-H23	0.576	0.506	0.395	0.313	0.198	0.568	0.496	0.552	0.34	0.25	0.295	0.278	0.362	0.267	0.269	0.834	0.713	0.835	0.747	0.187
EMC-BAC-2	0.545	0.561	0.531	0.475	0.509	0.533	0.52	0.527	0.445	0.43	0.976	1.02	0.981	0.827	0.887	0.515	0.509	0.505	0.405	0.461
LOU-NH91	0.518	0.515	0.527	0.535	0.511	0.544	0.539	0.47	0.506	0.52	0.82	0.81	0.796	0.801	0.729	0.668	0.657	0.679	0.706	0.562
LU99A	0.308	0.296	0.29	0.277	0.225	0.421	0.458	0.386	0.392	0.339	0.912	0.92	0.875	0.822	1.01	0.749	0.789	0.766	0.802	0.582
NCI-H1395	0.575	0.671	0.562	0.51	0.585	0.628	0.492	0.567	0.421	0.419	0.761	0.554	0.63	0.501	0.378	0.44	0.41	0.435	0.359	0.358
NCI-H460	0.363	0.394	0.357	0.314	0.125	0.227	0.144	0.0866	0.0886	0.0189	0.523	0.546	0.31	0.356	0.19	0.493	0.512	0.456	0.176	0.0895
201T	0.644	0.621	0.704	0.613	0.573	0.362	0.373	0.34	0.322	0.363	0.809	0.856	0.844	0.882	0.93	0.452	0.517	0.429	0.366	0.405
NCI-H1944	0.341	0.358	0.346	0.32	0.302	0.31	0.343	0.282	0.261	0.261	0.439	0.468	0.448	0.482	0.356	0.212	0.199	0.198	0.194	0.186
NCI-H2405	0.466	0.37	0.396	0.327	0.314	0.529	0.46	0.533	0.452	0.389	0.747	0.819	0.776	0.71	0.713	0.384	0.522	0.398	0.363	0.318
NCI-H1703	0.237	0.183	0.178	0.156	0.155															

Cell Line	relative viability ([1]; first compound 0.05 µM)	relative viability ([1]; first compound 0.1581 µM)	relative viability ([1]; first compound 0.5 µM)	relative viability ([1]; first compound 1.581 µM)	relative viability ([1]; first compound 5 µM)	relative viability ([2]; first compound 0.05 µM)	relative viability ([2]; first compound 0.1581 µM)	relative viability ([2]; first compound 0.5 µM)	relative viability ([2]; first compound 1.581 µM)	relative viability ([2]; first compound 5 µM)	relative viability ([3]; first compound 0.05 µM)	relative viability ([3]; first compound 0.1581 µM)	relative viability ([3]; first compound 0.5 µM)	relative viability ([3]; first compound 1.581 µM)	relative viability ([3]; first compound 5 µM)	relative viability ([4]; first compound 0.05 µM)	relative viability ([4]; first compound 0.1581 µM)	relative viability ([4]; first compound 0.5 µM)	relative viability ([4]; first compound 1.581 µM)	relative viability ([4]; first compound 5 µM)
NCI-H1755	0.472	0.411	0.452	0.292	0.334	0.467	0.494	0.459	0.449	0.425	0.722	0.81	0.774	0.793	0.855	0.629	0.664	0.603	0.652	0.597
NCI-H2087	0.821	1	0.95	0.852	0.803	0.222	0.292	0.235	0.241	0.177	0.258	0.25	0.231	0.331	0.347	0.47	0.479	0.483	0.485	0.507
NCI-H2228	0.258	0.286	0.297	0.355	0.351	1.03	0.872	0.541	0.393	0.252						0.274	0.256	0.373	0.184	0.194
NCI-H727	0.411	0.354	0.604	0.276	0.22	0.646	0.686	0.589	0.581	0.642	0.919	0.858	0.923	0.696	0.705	0.505	0.501	0.663	0.51	0.238
NCI-H650	1.06	0.882	0.804	0.749	0.602	0.372	0.357	0.36	0.313	0.324	0.317	0.341	0.34	0.39	0.434	0.426	0.413	0.447	0.486	0.399
NCI-H520	0.266	0.318	0.283	0.208	0.267	0.266	0.232	0.231	0.199	0.172	0.528	0.543	0.57	0.527	0.306	0.52	0.587	0.596	0.461	0.348
EBC-1	0.466	0.36	0.37	0.265	0.221															
NCI-H661	0.321	0.432	0.441	0.291	0.357	0.395	0.371	0.387	0.389	0.344	0.551	0.578	0.529	0.462	0.373	0.273	0.259	0.29	0.283	0.276
NCI-H1299	0.876	0.562	0.462	0.175	0.223															
NCI-H1648						0.208	0.281	0.254	0.305	0.259	0.383	0.483	0.487	0.467	0.504					
SW 900						0.53	0.527	0.535	0.444	0.529	0.383	0.409	0.418	0.42	0.595	0.656	0.776	0.726	0.428	0.228
NCI-H596	0.386	0.401	0.427	0.362	0.413						0.973	0.968	1.03	0.916	1.12	0.865	0.825	0.729	0.561	0.691
IA-LM	0.357	0.372	0.33	0.206	0.196															
NCI-H1563	0.581	0.63	0.658	0.585	0.595											0.593	0.658	0.642	0.614	0.605
NCI-H522						1.1	0.918	0.757	1.07	0.95	0.675	0.619	0.664	0.669	0.642	0.69	0.625	0.642	0.669	0.664
CAL-12T	0.416	0.45	0.525	0.389	0.244	0.505	0.569	0.476	0.189	0.202						0.478	0.585	0.537	0.377	0.155
